Molecular target: T1, human PKCθ full length enzyme (Homo sapiens, UniProt Q04759)
T1 construct: human PKCθ full length enzyme (Panvera Cat# P2996); purchased Panvera P2996
Assay: PKCθ IMAP assay (fluorescence polarization)
Type: biochemical
Details: human PKCθ full length enzyme, IMAP; average value; read-out: IC50 PKCθ IMAP
Method: The reaction buffer was prepared by diluting the 5× stock reaction buffer and adding DTT to obtain a concentration of 3.0 mM. […] The final concentration of compound was 2× and 10% DMSO. DMSO was added to the rest of the master mix to increase the concentration to 10%. 10 μl of the master mix containing 10% DMSO was added to the rest of the wells on the plate except the 2nd column. 20 μl was transferred from the first column to the 2nd column. The compounds were serially diluted in 2:1 ratio starting from the 2nd column. A 2× ([…]) PKCθ solution was made in the reaction buffer. 10 μl of the PKCθ solution was added to every well to achieve these final concentrations: PKCθ—1 nM; ATP—6 μM; peptide—100 nM; DMSO—5%. Samples were incubated for 25 minutes at room temperature. The binding reagent was prepared by diluting the beads in 1× binding buffer to 800:1. 50 μl of the binding reagent was added to every well and incubated for 20 minutes. FP was measured using Envision2100 (PerkinElmer Life Sciences). Wells with no ATPs and wells with no enzymes were used as controls.

T1 sequence (Q04759 whole entry): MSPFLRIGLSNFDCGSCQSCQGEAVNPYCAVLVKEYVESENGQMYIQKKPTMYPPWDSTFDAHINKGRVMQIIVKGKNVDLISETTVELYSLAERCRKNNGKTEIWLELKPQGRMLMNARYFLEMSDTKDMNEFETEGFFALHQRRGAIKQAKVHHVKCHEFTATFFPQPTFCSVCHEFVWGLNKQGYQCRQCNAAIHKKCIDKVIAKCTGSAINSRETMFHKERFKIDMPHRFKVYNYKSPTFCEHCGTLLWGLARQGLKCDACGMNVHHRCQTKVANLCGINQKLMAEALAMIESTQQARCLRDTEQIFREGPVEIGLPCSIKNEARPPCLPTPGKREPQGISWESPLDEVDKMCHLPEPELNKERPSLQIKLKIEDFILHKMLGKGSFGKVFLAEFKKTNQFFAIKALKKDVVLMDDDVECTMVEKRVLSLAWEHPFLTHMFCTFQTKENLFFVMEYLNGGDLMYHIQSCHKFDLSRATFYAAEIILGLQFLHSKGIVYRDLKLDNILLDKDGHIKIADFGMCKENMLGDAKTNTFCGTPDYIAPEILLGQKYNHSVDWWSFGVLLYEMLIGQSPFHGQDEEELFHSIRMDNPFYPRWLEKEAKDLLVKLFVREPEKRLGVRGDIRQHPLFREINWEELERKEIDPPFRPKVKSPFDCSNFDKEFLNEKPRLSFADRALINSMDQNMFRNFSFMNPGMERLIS

| Structure (SMILES) | IC50 |
| --- | --- |
| N#Cc1cncc(-c2cccc(OCCNCCO)c2)c1Nc1ccc2[nH]ccc2c1 [Compound 176, 5-(3-{2-[(2-hydroxyethyl)amino]ethoxy}phenyl)-4-(1H-indol-5-ylamino)nicotinonitrile] | 0.03 µM |
| N#Cc1cncc(-c2cccc(OCCNCCN3CCCC3)c2)c1Nc1ccc2[nH]ccc2c1 [Compound 177, 4-(1H-indol-5-ylamino)-5-(3-{2-[(2-pyrrolidin-1-ylethyl)amino]ethoxy}phenyl)nicotinonitrile] | 0.02 µM |
| COc1ccc(-c2cncc(C#N)c2Nc2ccc3[nH]ccc3c2)cc1OCCCl [Compound 178, 5-[3-(2-chloroethoxy)-4-methoxyphenyl]-4-(1H-indol-5-ylamino)nicotinonitrile] | 0.11 µM |
| CCN(CC)CCOc1cc(-c2cncc(C#N)c2Nc2ccc3[nH]ccc3c2)ccc1OC [Compound 179, 5-{3-[2-(diethylamino)ethoxy]-4-methoxyphenyl}-4-(1H-indol-5-ylamino)nicotinonitrile] | 0.41 µM |
| COc1ccc(-c2cncc(C#N)c2Nc2ccc3[nH]ccc3c2)cc1OCCN(C(C)C)C(C)C [Compound 180, 5-{3-[2-(diisopropylamino)ethoxy]-4-methoxyphenyl}-4-(1H-indol-5-ylamino)nicotinonitrile] | 0.69 µM |
| COc1ccc(-c2cncc(C#N)c2Nc2ccc3[nH]ccc3c2)cc1OCCNCc1ccccc1 [Compound 181, 5-{3-[2-(benzylamino)ethoxy]-4-methoxyphenyl}-4-(1H-indol-5-ylamino)nicotinonitrile] | 0.039 µM |
| COCCNCCOc1cc(-c2cncc(C#N)c2Nc2ccc3[nH]ccc3c2)ccc1OC [Compound 182, 4-(1H-indol-5-ylamino)-5-(4-methoxy-3-{2-[(2-methoxyethyl)amino]ethoxy}phenyl)nicotinonitrile] | 0.12 µM |
| COc1ccc(-c2cncc(C#N)c2Nc2ccc3[nH]ccc3c2)cc1OCCNc1nnc(C)s1 [Compound 183, 4-(1H-indol-5-ylamino)-5-(4-methoxy-3-{2-[(5-methyl-1,3,4-thiadiazol-2-yl)amino]ethoxy}phenyl)nicotinonitrile] | 0.07 µM |
| CN1CCN(Cc2ccc(-c3cccc(-c4cncc(C#N)c4Nc4ccc5[nH]ccc5c4)c3)s2)CC1 [Compound 184, 4-(1H-indol-5-ylamino)-5-(3-{5-[(4-methylpiperazin-1-yl)methyl]-2-thienyl}phenyl)nicotinonitrile] | 0.26 µM |
| N#Cc1cncc(-c2cccc(-c3ccc(CN4CCOCC4)s3)c2)c1Nc1ccc2[nH]ccc2c1 [Compound 185, 4-(1H-indol-5-ylamino)-5-{3-[5-(morpholin-4-ylmethyl)-2-thienyl]phenyl}nicotinonitrile] | 0.5 µM |
| N#Cc1cncc(-c2cccc(-c3ccc(CN4CCCCC4)s3)c2)c1Nc1ccc2[nH]ccc2c1 [Compound 186, 4-(1H-indol-5-ylamino)-5-{3-[5-(piperidin-1-ylmethyl)-2-thienyl]phenyl}nicotinonitrile] | 0.14 µM |
| CN(C)Cc1ccc(-c2cccc(-c3cncc(C#N)c3Nc3ccc4[nH]ccc4c3)c2)s1 [Compound 187, 5-(3-{5-[(dimethylamino)methyl]-2-thienyl}phenyl)-4-(1H-indol-5-ylamino)nicotinonitrile] | 0.11 µM |
| COc1ccc(-c2cncc(C#N)c2Nc2ccc3[nH]ccc3c2)cc1Br [Compound 188, 5-(3-bromo-4-methoxyphenyl)-4-(1H-indol-5-ylamino)nicotinonitrile] | 0.01 µM |
| COc1ccc(-c2cncc(C#N)c2Nc2ccc3[nH]ccc3c2)cc1-c1cccs1 [Compound 189, 4-(1H-indol-5-ylamino)-5-[4-methoxy-3-(2-thienyl)phenyl]nicotinonitrile] | 0.03 µM |
| COc1ccc(-c2cncc(C#N)c2Nc2ccc3[nH]ccc3c2)cc1-c1ccc(Cl)cc1 [Compound 190, 5-(4′-chloro-6-methoxybiphenyl-3-yl)-4-(1H-indol-5-ylamino)nicotinonitrile] | 0.18 µM |
| COc1ccc(-c2cncc(C#N)c2Nc2ccc3[nH]ccc3c2)cc1-c1cccc(Cl)c1 [Compound 191, 5-(3′-chloro-6-methoxybiphenyl-3-yl)-4-(1H-indol-5-ylamino)nicotinonitrile] | 0.32 µM |
| COc1ccc(-c2cncc(C#N)c2Nc2ccc3[nH]ccc3c2)cc1-c1ccc(C(=O)NC2CCCC2)cc1 [Compound 192, 5′-[5-cyano-4-(1H-indol-5-ylamino)pyridin-3-yl]-N-cyclopentyl-2′-methoxybiphenyl-4-carboxamide] | 0.28 µM |
| COc1ccc(-c2cncc(C#N)c2Nc2ccc3[nH]ccc3c2)cc1-c1ccccc1Cl [Compound 193, 5-(2′-chloro-6-methoxybiphenyl-3-yl)-4-(1H-indol-5-ylamino)nicotinonitrile] | 0.25 µM |

| Structure (SMILES) | IC50 |
| --- | --- |
| N#Cc1cncc(-c2ccc(OCc3ccccc3)cc2)c1Nc1ccc2[nH]ccc2c1 [Compound 195, 5-[4-(benzyloxy)phenyl]-4-(1H-indol-5-ylamino)nicotinonitrile] | 0.25 µM |
| CNC(=O)c1ccc(-c2cccc(-c3cncc(C#N)c3Nc3ccc4[nH]ccc4c3)c2)cc1 [Compound 196, 3′-[5-cyano-4-(1H-indol-5-ylamino)pyridin-3-yl]-N-methylbiphenyl-4-carboxamide] | 0.46 µM |
| CCCCNC(=O)c1ccc(-c2cccc(-c3cncc(C#N)c3Nc3ccc4[nH]ccc4c3)c2)cc1 [Compound 197, N-butyl-3′-[5-cyano-4-(1H-indol-5-ylamino)pyridin-3-yl]biphenyl-4-carboxamide] | 0.19 µM |
| CCC(CC)NC(=O)c1ccc(-c2cccc(-c3cncc(C#N)c3Nc3ccc4[nH]ccc4c3)c2)cc1 [Compound 198, 3′-[5-cyano-4-(1H-indol-5-ylamino)pyridin-3-yl]-N-(1-ethylpropyl)biphenyl-4-carboxamide] | 0.33 µM |
| N#Cc1cncc(-c2cccc(-c3ccc(C(=O)NCCO)cc3)c2)c1Nc1ccc2[nH]ccc2c1 [Compound 199, 3′-[5-cyano-4-(1H-indol-5-ylamino)pyridin-3-yl]-N-(2-hydroxyethyl)biphenyl-4-carboxamide] | 1.3 µM |
| COCCNC(=O)c1ccc(-c2cccc(-c3cncc(C#N)c3Nc3ccc4[nH]ccc4c3)c2)cc1 [Compound 200, 3′-[5-cyano-4-(1H-indol-5-ylamino)pyridin-3-yl]-N-(2-methoxyethyl)biphenyl-4-carboxamide] | 0.19 µM |
| N#Cc1cncc(-c2cccc(-c3ccc(C(=O)NC4CC4)cc3)c2)c1Nc1ccc2[nH]ccc2c1 [Compound 201, 3′-[5-cyano-4-(1H-indol-5-ylamino)pyridin-3-yl]-N-cyclopropylbiphenyl-4-carboxamide] | 0.3 µM |
| N#Cc1cncc(-c2cccc(-c3ccc(C(=O)NC4CCCCC4)cc3)c2)c1Nc1ccc2[nH]ccc2c1 [Compound 202, 3′-[5-cyano-4-(1H-indol-5-ylamino)pyridin-3-yl]-N-cyclohexylbiphenyl-4-carboxamide] | 0.34 µM |
| N#Cc1cncc(-c2cccc(-c3ccc(C(=O)NCCN4CCCC4)cc3)c2)c1Nc1ccc2[nH]ccc2c1 [Compound 203, 3′-[5-cyano-4-(1H-indol-5-ylamino)pyridin-3-yl]-N-(2-pyrrolidin-1-ylethyl)biphenyl-4-carboxamide] | 0.29 µM |
| N#Cc1cncc(-c2cccc(-c3ccc(C(=O)N4CCCC4)cc3)c2)c1Nc1ccc2[nH]ccc2c1 [Compound 205, 4-(1H-indol-5-ylamino)-5-[4′-(pyrrolidin-1-ylcarbonyl)biphenyl-3-yl]nicotinonitrile] | 0.51 µM |
| N#Cc1cncc(-c2cccc(-c3ccc(C(=O)NCCCCO)cc3)c2)c1Nc1ccc2[nH]ccc2c1 [Compound 209, 3′-[5-cyano-4-(1H-indol-5-ylamino)pyridin-3-yl]-N-(4-hydroxybutyl)biphenyl-4-carboxamide] | 0.28 µM |
| N#Cc1cncc(-c2cccc(-c3ccc(C(=O)NCCCO)cc3)c2)c1Nc1ccc2[nH]ccc2c1 [Compound 210, 3′-[5-cyano-4-(1H-indol-5-ylamino)pyridin-3-yl]-N-(3-hydroxypropyl)biphenyl-4-carboxamide] | 2.58 µM |
| CNCCNC(=O)c1ccc(-c2cccc(-c3cncc(C#N)c3Nc3ccc4[nH]ccc4c3)c2)cc1 [Compound 211, 3′-[5-cyano-4-(1H-indol-5-ylamino)pyridin-3-yl]-N-[2-(methylamino)ethyl]biphenyl-4-carboxamide] | 0.33 µM |
| N#Cc1cncc(-c2cccc(-c3ccc(C(=O)NCc4ccccn4)cc3)c2)c1Nc1ccc2[nH]ccc2c1 [Compound 212, 3′-[5-cyano-4-(1H-indol-5-ylamino)pyridin-3-yl]-N-(pyridin-2-ylmethyl)biphenyl-4-carboxamide] | 0.59 µM |
| N#Cc1cncc(-c2cccc(-c3ccc(C(=O)NCc4cccnc4)cc3)c2)c1Nc1ccc2[nH]ccc2c1 [Compound 213, 3′-[5-cyano-4-(1H-indol-5-ylamino)pyridin-3-yl]-N-(pyridin-3-ylmethyl)biphenyl-4-carboxamide] | 0.27 µM |
| N#Cc1cncc(-c2cccc(-c3ccc(C(=O)NCc4ccncc4)cc3)c2)c1Nc1ccc2[nH]ccc2c1 [Compound 214, 3′-[5-cyano-4-(1H-indol-5-ylamino)pyridin-3-yl]-N-(pyridin-4-ylmethyl)biphenyl-4-carboxamide] | 0.25 µM |
| CCCCNC(=O)c1ccc(-c2cccc(-c3cncc(C#N)c3Nc3cccc4[nH]ccc34)c2)cc1 [Compound 215, N-butyl-3′-[5-cyano-4-(1H-indol-4-ylamino)pyridin-3-yl]biphenyl-4-carboxamide] | 0.06 µM |

— US7781591B2, “Substituted 3-cyanopyridines as protein kinase inhibitors” (Wyeth LLC, priority 2006, dated 2010)
